Experimental data as given in the supplement of paper PMC8149375.

Columns and labels:
Details in all cases: treatment: drug alone; 5 days
A498 [1] = experiment: GI50, drug alone; higher = less potent
Procedure: (§1)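 Primary HTS: 8 RCC cell lines treated with 8 doses (up to 10 uM) of each library drug alone for 5 days; viability read by CellTiter-Glo and normalised to DMSO. GI50 was fitted with XLfit (4-parameter), AUC is the area under the dose-response curve, and minimum viability is the lowest fraction of DMSO viability across doses.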

769-P [2] = experiment: GI50, drug alone; higher = less potent
Procedure: as §1

TK-10 [3] = experiment: GI50, drug alone; higher = less potent
Procedure: as §1

786-O [4] = experiment: GI50, drug alone; higher = less potent
Procedure: as §1

ACHN [5] = experiment: GI50, drug alone; higher = less potent
Procedure: as §1

SN12C [6] = experiment: GI50, drug alone; higher = less potent
Procedure: as §1

UO-31 [7] = experiment: GI50, drug alone; higher = less potent
Procedure: as §1

CAKI-1 [8] = experiment: GI50, drug alone; higher = less potent
Procedure: as §1

A498 [9] = experiment: AUC of dose-response viability curve, drug alone (arbitrary (AUC of normalised viability)); higher = less growth inhibition
Procedure: as §1

769-P [10] = experiment: as above
Procedure: as §1

TK-10 [11] = experiment: as above
Procedure: as §1

786-O [12] = experiment: as above
Procedure: as §1

ACHN [13] = experiment: as above
Procedure: as §1

SN12C [14] = experiment: as above
Procedure: as §1

UO-31 [15] = experiment: as above
Procedure: as §1

CAKI-1 [16] = experiment: as above
Procedure: as §1

A498 [17] = experiment: minimum viability across doses, drug alone, relative to DMSO (fraction); higher = less growth inhibition
Procedure: as §1

769-P [18] = experiment: as above
Procedure: as §1

TK-10 [19] = experiment: as above
Procedure: as §1

786-O [20] = experiment: as above
Procedure: as §1

ACHN [21] = experiment: as above
Procedure: as §1

SN12C [22] = experiment: as above
Procedure: as §1

UO-31 [23] = experiment: as above
Procedure: as §1

CAKI-1 [24] = experiment: as above
Procedure: as §1

SMILES | GI50, drug alone (A498 [1]) [nM] | GI50, drug alone (769-P [2]) [nM] | GI50, drug alone (TK-10 [3]) [nM] | GI50, drug alone (786-O [4]) [nM] | GI50, drug alone (ACHN [5]) [nM] | GI50, drug alone (SN12C [6]) [nM] | GI50, drug alone (UO-31 [7]) [nM] | GI50, drug alone (CAKI-1 [8]) [nM] | AUC of dose-response viability curve (A498 [9]) | AUC of dose-response viability curve (769-P [10]) | AUC of dose-response viability curve (TK-10 [11]) | AUC of dose-response viability curve (786-O [12]) | AUC of dose-response viability curve (ACHN [13]) | AUC of dose-response viability curve (SN12C [14]) | AUC of dose-response viability curve (UO-31 [15]) | AUC of dose-response viability curve (CAKI-1 [16]) | minimum viability across doses (A498 [17]) | minimum viability across doses (769-P [18]) | minimum viability across doses (TK-10 [19]) | minimum viability across doses (786-O [20]) | minimum viability across doses (ACHN [21]) | minimum viability across doses (SN12C [22]) | minimum viability across doses (UO-31 [23]) | minimum viability across doses (CAKI-1 [24])
CN(C)C1CCN(C(=O)c2ccc(NC(=O)Nc3ccc(-c4nc(N5CCOCC5)nc(N5CCOCC5)n4)cc3)cc2)CC1 | 93.2 | 5330 | 472 | 130 | 990 | 50 | 451 | 1180 | 1.83 | 3.1 | 2.09 | 1.73 | 2.66 | 1.39 | 2.48 | 2.56 | 0.162 | 0.162 | 0.133 | 0.111 | 0.167 | 0.112 | 0.0116 | 0.0321
CCN(CC)CCCCNc1ncc2cc(-c3cc(OC)cc(OC)c3)c(NC(=O)NC(C)(C)C)nc2n1 | 6940 | 9270 | 4780 | 2360 | 779 | 8230 | 7930 | 614 | 3.77 | 3.21 | 2.69 | 2.06 | 2.2 | 2.73 | 3.7 | 2.27 | 0.265 | 0.461 | 0.348 | 0.00314 | 0.0868 | 0.338 | 0.128 | 0.074
COc1ccc(-c2cc3c(C)nc(N)nc3n([C@H]3CC[C@H](OCCO)CC3)c2=O)cn1 | 1020 | 386 | 153 | 163 | 179 | 291 | 255 | 206 | 2.91 | 2.05 | 1.72 | 1.76 | 1.79 | 1.98 | 2.06 | 1.78 | 0.193 | 0.0177 | 0.0289 | 0.00335 | 0.067 | 0.0766 | 0.00736 | 0.0249
CC(C)CC(=O)Nc1n[nH]c2c1CN(C(=O)C1CCN(C)CC1)C2(C)C | 1480 | 4340 | 3080 | 120 | 276 | 262 | 1060 | 1770 | 2.94 | 3.01 | 2.7 | 1.4 | 1.92 | 1.9 | 3 | 2.75 | 0.00722 | 0.189 | 0.174 | 0.0023 | 0.0324 | 0.0129 | 0.00653 | 0.0863
OCc1ccc(-c2ccc(-c3ccc(CO)s3)o2)s1 | 7460 | 42.7 | 29.4 | 27.5 | 180 | 582 | 389 | 11.2 | 3.4 | 1.27 | 1.03 | 1.04 | 1.76 | 2.29 | 2.33 | 0.628 | 0.419 | 0.056 | 0.032 | 0.00113 | 0.0234 | 0.0662 | 0.0063 | 0.00454
